Assay results: PMC11062922 (Nature Chemical Biology, 2023)
Read-outs that look alike come from different tables or passages of the source.

Assays:
ACOX1 = biological target: T1, ACOX1 (Homo sapiens, UniProt Q15067); assay: Kinobeads two-dose competition binding: ACOX1;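 further: competition of compounds with immobilized broad-spectrum kinase inhibitor beads in cell lysate at 100 and 1,000 nM, 45 min at 4 °C, bead-bound protein quantified by label-free MS versus DMSO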
T1 construct: endogenous in cells
T1 sequence (Q15067 1-660): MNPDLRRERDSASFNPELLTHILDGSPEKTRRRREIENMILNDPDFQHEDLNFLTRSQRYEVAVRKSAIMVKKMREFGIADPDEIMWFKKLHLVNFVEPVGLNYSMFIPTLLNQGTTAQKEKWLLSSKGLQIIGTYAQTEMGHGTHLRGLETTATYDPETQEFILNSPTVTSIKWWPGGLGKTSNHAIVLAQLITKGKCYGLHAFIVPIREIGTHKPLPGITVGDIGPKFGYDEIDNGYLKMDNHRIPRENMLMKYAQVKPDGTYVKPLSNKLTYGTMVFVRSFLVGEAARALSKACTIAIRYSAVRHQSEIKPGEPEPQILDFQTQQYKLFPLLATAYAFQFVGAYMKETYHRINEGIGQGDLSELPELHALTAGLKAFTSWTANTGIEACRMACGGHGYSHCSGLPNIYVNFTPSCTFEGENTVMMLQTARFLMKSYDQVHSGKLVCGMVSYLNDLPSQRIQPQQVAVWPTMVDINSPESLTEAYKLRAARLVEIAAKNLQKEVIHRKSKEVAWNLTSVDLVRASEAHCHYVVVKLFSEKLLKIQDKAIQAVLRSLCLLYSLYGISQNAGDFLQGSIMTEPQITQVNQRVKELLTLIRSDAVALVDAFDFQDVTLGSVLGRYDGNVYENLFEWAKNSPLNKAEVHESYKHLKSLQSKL

CSNK2A1 (CK2) = biological target: T2, CSNK2A1 (CK2) (Homo sapiens, UniProt P68400); assay: Kinobeads two-dose competition binding: CK2 (CSNK2A1)
T2 construct: endogenous in cells
T2 sequence (P68400 whole entry): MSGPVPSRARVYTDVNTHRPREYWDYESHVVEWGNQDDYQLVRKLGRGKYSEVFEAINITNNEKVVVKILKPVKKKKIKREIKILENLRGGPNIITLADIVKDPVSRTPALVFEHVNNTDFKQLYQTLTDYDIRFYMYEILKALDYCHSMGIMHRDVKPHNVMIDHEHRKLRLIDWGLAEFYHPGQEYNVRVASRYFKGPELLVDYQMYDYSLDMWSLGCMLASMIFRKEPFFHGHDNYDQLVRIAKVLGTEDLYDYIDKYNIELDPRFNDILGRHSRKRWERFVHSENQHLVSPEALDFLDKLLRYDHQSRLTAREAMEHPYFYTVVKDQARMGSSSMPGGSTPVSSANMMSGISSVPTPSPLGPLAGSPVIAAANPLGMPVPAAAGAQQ

NUAK1 = biological target: T3, NUAK1 (Homo sapiens, UniProt O60285); assay: Kinobeads two-dose competition binding: NUAK1; settings: for CATDS: target NUAK1
T3 construct: to maximize the representation of endogenous proteins; endogenous in cells
T3 sequence (O60285 1-661): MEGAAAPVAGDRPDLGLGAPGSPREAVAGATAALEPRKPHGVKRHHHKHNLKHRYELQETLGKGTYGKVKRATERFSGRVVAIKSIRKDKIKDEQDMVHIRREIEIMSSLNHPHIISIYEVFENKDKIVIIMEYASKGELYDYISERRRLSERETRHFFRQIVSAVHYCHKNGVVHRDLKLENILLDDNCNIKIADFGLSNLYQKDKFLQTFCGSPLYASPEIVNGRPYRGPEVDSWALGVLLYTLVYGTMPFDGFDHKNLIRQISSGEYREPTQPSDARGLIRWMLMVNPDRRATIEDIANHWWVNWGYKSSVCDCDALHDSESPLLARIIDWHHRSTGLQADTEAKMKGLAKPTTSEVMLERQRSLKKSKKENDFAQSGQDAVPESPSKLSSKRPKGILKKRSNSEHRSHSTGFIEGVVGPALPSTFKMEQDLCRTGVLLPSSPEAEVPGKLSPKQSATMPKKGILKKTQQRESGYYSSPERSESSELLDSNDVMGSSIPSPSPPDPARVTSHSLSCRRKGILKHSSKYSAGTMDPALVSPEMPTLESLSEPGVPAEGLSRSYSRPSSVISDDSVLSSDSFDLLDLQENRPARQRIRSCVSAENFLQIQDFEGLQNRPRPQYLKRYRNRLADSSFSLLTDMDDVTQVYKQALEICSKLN
From the text: Briefly, Kinobeads comprise seven broad-spectrum small molecule kinase inhibitors immobilized on Sepharose beads. […]. Compounds of interest are set to compete for target protein binding with Kinobeads in the lysate and the amount of a given protein bound to Kinobeads in the presence of a compound can be quantified relative to a dimethylsulfoxide (DMSO) vehicle control by label-free mass spectrometry. This assay measures the physical interaction of a compound with thousands of endogenous proteins in parallel and, when systematically increasing the concentration of competitor, enables the calculation of an apparent interaction constant ( Kdapp ) for each compound and protein.
Kinobeads pulldown experiments were performed as described previously[13],[14],[17] with minor modification. […] The protein concentration was adjusted to 5 mg ml^−1. Kinase inhibitors were spiked into 0.5 ml of cell lysate at final concentrations of 100 and 1,000 nM (or DMSO, 0.3, 1, 3, 10, 30, 100, 300 and 1,000 nM for full dose experiments). […] Lysates were incubated for 45 min at 4 °C. Subsequently, lysates were incubated with Kinobeads ε (17.5 µl of settled beads) for 30 min at 4 °C. To assess the degree of protein depletion from the lysates by Kinobeads, the flow through of the DMSO control was recovered for a pulldown of pulldown experiment where the lysate was incubated a second time with fresh Kinobeads. Beads were washed in three steps with buffer containing 0.4%, 0.2% and no IGEPAL. Bound proteins were reduced with 50 mM DTT in 8 M Urea, 40 mM Tris-HCl pH 7.4 for 30 min at room temperature. After alkylation with 55 mM chloroacetamide, the urea concentration was reduced to 1–2 M and proteins were digested with trypsin. Acidified peptides were desalted and concentrated using SepPak tC18 µEluation plates (Waters). Samples were frozen, dried by vacuum centrifugation and stored at −20 °C.
Each kinase inhibitor was processed together with all DMSO controls of the same plate. Additionally, each search was supplemented with five high quality DMSO controls for consistent peptide identification and protein grouping. The resultant file (proteinGroups.txt) was used for subsequent filtering, normalization, data visualization and target annotation that was automatically performed by a data processing pipeline built in house that used R (including the ‘drc’ and ‘heatmap’ packages). First, reverse hits, potential contaminants and not quantified proteins in the DMSO control samples were discarded. Protein raw and label-free quantification intensities were normalized to the median DMSO control intensity to obtain relative residual binding intensities for each protein group at every inhibitor concentration and standard deviations of the DMSO control intensity were calculated. IC50 values were estimated based on the following equation IC50=I×100−inhibition/inhibition where [I] is the inhibitor concentration that was used for IC50 calculation and ‘inhibition’ the relative residual binding intensity. […]. Estimated Kdapp values were then calculated by multiplying the estimated IC50 values with a protein-dependent correction factor that was limited to a maximum value of one. The correction factor accounts for the depletion of a target protein from the lysate by Kinobeads. The depletion can be measured by the ratio of the amount of protein captured in two consecutive pulldowns of the same DMSO control lysate. In this study, correction factors were determined in separate experiments using the same lysate mixture and the same bead batch. Correction factors were set to the median of all correction factors. Targets of kinase inhibitors were annotated using the previously published random forest classifier. A training data set was annotated manually. […]

[1] = sheet CATDS matrix 2, Gene Name ACOX1

CCc1cc2c(cc1N1CCC(N3CCOCC3)CC1)C(C)(C)c1[nH]c3cc(C#N)ccc3c1C2=O [Alectinib]
CATDS (ACOX1; [1]): 0 | CATDS (ACOX1; target ACOX1): 0 | CATDS (CSNK2A1 (CK2); target CSNK2A1;CSNK2A3): 0 | CATDS (NUAK1): 0

CCN1CCN(Cc2ccc(Nc3ncc(F)c(-c4cc(F)c5nc(C)n(C(C)C)c5c4)n3)nc2)CC1 [Abemaciclib]
CATDS (ACOX1; [1]): 0 | CATDS (ACOX1; target ACOX1): 0 | CATDS (CSNK2A1 (CK2); target CSNK2A1;CSNK2A3): 0.05816 | CATDS (NUAK1): 0

Nc1ncnc2[nH]c(-c3ccccc3)nc12 [AH5015_KCGS]
CATDS (ACOX1; [1]): 0 | CATDS (ACOX1; target ACOX1): 0 | CATDS (CSNK2A1 (CK2); target CSNK2A1;CSNK2A3): 0 | CATDS (NUAK1): 0

N#CC1(c2ccc(NC(=O)c3cccnc3NCc3ccncc3)cc2)CCCC1 [Apatinib]
CATDS (ACOX1; [1]): 0 | CATDS (ACOX1; target ACOX1): 0 | CATDS (CSNK2A1 (CK2); target CSNK2A1;CSNK2A3): 0 | CATDS (NUAK1): 0

CC(C)N1CC(=O)N(C)c2cnc(Nc3cccc(S(=O)(=O)CCN4CCOCC4)c3)nc21 [BI00009348]
CATDS (ACOX1; [1]): 0 | potency estimated from few doses (NUAK1; Kinobeads two-dose, Drugmatrix - all 2, read-out: apparent Kd NUAK1): > 1000 nM

C#Cc1cccc(Nc2ncnc3cc(OC)c(OC4CCN(C)CC4)cc23)c1 [BI00007366]
CATDS (ACOX1; [1]): 0

C[C@]12O[C@H](C[C@]1(O)CO)n1c3ccccc3c3c4c(c5c6ccccc6n2c5c31)CNC4=O [Lestaurtinib]
potency estimated from few doses (CSNK2A1 (CK2); read-out: Lestaurtinib Drugmatrix value, Gene Name CSNK2A1;CSNK2A3, target CSNK2A1;CSNK2A3, each column = one Lestaurtinib control replicate (batch_R1-R3)): 291 nM

COc1cc(Nc2ncc3c(C)nc(-c4cc5ccccc5[nH]4)n3n2)cc(OC)c1OC [GW869516X]
potency estimated from few doses (CSNK2A1 (CK2); Kinobeads two-dose screen (binding), read-out: Kdapp CK2 (CSNK2A1)): 78 nM | CATDSCK2 (CSNK2A1 (CK2); selectivity score from Kinobeads two-dose data): 1

CN(C)C/C=C/C(=O)Nc1cc2c(Nc3ccc(F)c(Cl)c3)ncnc2cc1O[C@H]1CCOC1 [Afatinib]
CATDS (NUAK1): 0
